Test results taken from the supplement of paper PMC10307832.

Legend:
Experiment in all cases: relative viability (nuclei count vs DMSO), 5 days (fraction); higher = more cells survive
[1] = compound: CN1CCN(CC1)C2=CC(=C(C=C2)NC3=NC(=C(S3)C(=O)C4=C(C=CC=C4Cl)Cl)N)OC [XMD14-99] + N=C(N)NC(=N)NCCc1ccccc1 [Phenformin] (partner 250 µM)
Summary of the method: (§1)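 After 5 days of treatment, lung cancer cells in 1536-well plates were fixed and stained in a single step (final 0.05% Triton X-100, 1% formaldehyde, 1 ug/ml Hoechst) and their nuclei counted on 4× images. Treatment had been applied by pin tool the day after seeding as one drug alone or as a fixed anchor-drug dose with five library-drug doses (not always all listed) in √10 steps. Relative viability is the nuclei count of treated wells divided by that of vehicle wells, and values are medians of duplicate plates.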

[2] = compound: N[C@@H]1CCCN(c2c(/C=C3\SC(=O)NC3=O)cccc2-c2ccccc2)C1 [AZD1208] + CS(=O)(=O)CCNCc1ccc(-c2ccc3ncnc(Nc4ccc(OCc5cccc(F)c5)c(Cl)c4)c3c2)o1 [Lapatinib] (partner 2 µM)
Summary of the method: as §1

[3] = compound: CN1CCN(CC1)C2=CC(=C(C=C2)NC3=NC(=C(S3)C(=O)C4=C(C=CC=C4Cl)Cl)N)OC [XMD14-99] + O=C(CCCCCCC(=O)Nc1ccccc1)NO [Vorinostat] (partner 1 µM)
Summary of the method: as §1

[4] = compound: N[C@@H]1CCCN(c2c(/C=C3\SC(=O)NC3=O)cccc2-c2ccccc2)C1 [AZD1208] + O=C(CCCCCCC(=O)Nc1ccccc1)NO [Vorinostat] (partner 1 µM)
Summary of the method: as §1

Cell Line	relative viability ([1]; first compound 0.08 µM)	relative viability ([1]; first compound 0.8 µM)	relative viability ([1]; first compound 2.53 µM)	relative viability ([1]; first compound 8 µM)	relative viability ([2]; first compound 0.08 µM)	relative viability ([2]; first compound 0.253 µM)	relative viability ([2]; first compound 0.8 µM)	relative viability ([2]; first compound 2.53 µM)	relative viability ([2]; first compound 8 µM)	relative viability ([3]; first compound 0.08 µM)	relative viability ([3]; first compound 0.8 µM)	relative viability ([3]; first compound 2.53 µM)	relative viability ([3]; first compound 8 µM)	relative viability ([4]; first compound 0.08 µM)	relative viability ([4]; first compound 0.253 µM)	relative viability ([4]; first compound 0.8 µM)	relative viability ([4]; first compound 2.53 µM)	relative viability ([4]; first compound 8 µM)
NCI-H1975	0.379	0.41	0.325	0.317	0.916	1.1	0.838	0.893	1.07	0.675	0.673	0.612	0.475	0.708	0.799	0.705	0.735	0.767
CAL-12T	0.597	0.567	0.525	0.412	0.634	0.771	0.6	0.695	0.588	0.685	0.894	0.627	0.613	0.675	0.814	0.565	0.653	0.439
NCI-H1623	0.573	0.613	0.584	0.54														
HCC-44	0.261	0.16	0.303	0.168	1.01	0.987	1.06	0.999	0.947	1.12	1.1	1.13	1.04	1.2	1.09	1.13	1.11	1.12
EKVX	0.261	0.246	0.227	0.23	0.194	0.191	0.194	0.168	0.176	0.701	0.714	0.655	0.493	0.766	0.583	0.744	0.735	0.763
NCI-H1651	0.321	0.319	0.301	0.272	0.805	0.784	0.717	0.643	0.62	0.614	0.487	0.534	0.448	0.583	0.602		0.561	0.556
NCI-H1944	0.194	0.203	0.173	0.157	0.8	0.788	0.708	0.712	0.484	0.547	0.586	0.486	0.449	0.596	0.665	0.618	0.468	0.379
NCI-H1703					0.852	1.04	0.804	1.05	0.626									
Calu-6					1.04	1.19	1.04	1.08	1.03									
EBC-1					0.195	0.249	0.193	0.218	0.2									
A-427	0.431	0.31	0.259	0.231	1.11	0.988	0.843	1.15	0.815	0.882	0.832	0.689	0.612	0.873	0.913	0.836	0.906	0.828
NCI-H2405	0.379	0.39	0.373	0.231	1.12	1.05	0.984	1.04	0.841	1	1.07	1	0.514	1.13	1.04	0.965	1.01	0.932
NCI-H1355	0.518	0.473	0.424	0.36	1.04	0.995	0.777	1.09	0.71	0.636	0.604	0.586	0.556	0.638	0.672	0.558	0.603	0.544
NCI-H358	0.306	0.354	0.267	0.217	0.343	0.44	0.38	0.36	0.35	0.686	0.653	0.553	0.309	0.719	0.646	0.576	0.678	0.618
RERF-LC-KJ	0.425	0.45	0.375	0.388	0.819	0.896	0.698	0.679	0.562	0.788	0.685	0.553	0.595	0.646	0.668	0.7	0.658	0.598
NCI-H23	0.767	0.85	0.741	0.659	1.06	1.22	0.945	0.98	0.735	0.641	0.581	0.604	0.464	0.508	0.629	0.614	0.602	0.5
HOP-62	0.707	0.648	0.643	0.547	1.14	1.05	0.985	0.875	0.889	0.668	0.804	0.661	0.441	0.657	0.856	0.6	0.455	0.572
HARA	0.438	0.486	0.346	0.324	0.727	0.61	0.686	0.737	0.594	0.537	0.499	0.369	0.397	0.489	0.486	0.451	0.515	0.546
PC-14	0.639	0.644	0.517	0.308	0.298	0.417	0.295	0.327	0.317	0.636	0.628	0.438	0.285	0.674	0.78	0.719	0.687	0.604
NCI-H1755	0.587	0.57	0.578	0.523	1.05	1.09	1.01	0.978	0.848	0.661	0.742	0.686	0.608	0.79	0.893	0.604	0.685	0.555
HCC-78	0.681	0.551	0.743	0.451	0.779	0.888	0.621	0.845	0.966	0.404	0.408	0.369	0.382	0.435	0.444	0.413	0.403	0.37
